Measurements: patent US7875343B2, “Anti-microbial carpet underlay and method of making” (L & P Property Management Company, priority 2003, dated 2011)
Where two headings read alike, the source gives them in different places.

Columns and labels:
Aspergillus niger [1] = conditions: 28 degrees C., seven days
Description: (§1) Biocidal effectiveness of the rebonded carpet pad 12 and/or film 18 according the present invention may be determined by measuring inhibition of growth of bacterial and/or fungus using AATCC (American Association of Textile Chemists and Colorists) 174, ASTM E2180-1, and ASTM D 3273 test protocols compared to non-treated control standards. The AATCC 174 protocol was developed for determining the antimicrobial activity of new carpet materials.
(§2) A number of specimens of carpet underlay 10 were made by methods described above, with various concentrations of zinc pyrithione in the binder 16 and film 18 for testing to determine levels that provide an effective antimicrobial effect. The specimens included a film 18 on one side as illustrated in FIG. 1. This allowed testing of the foam side of the specimens to indicate antimicrobial effect of the pad 12 without film 18 and testing of the film side to indicate antimicrobial effect of the pad 12 with film 18. The AATCC 174 test method provides for testing both unwashed and washed samples. Washed samples were treated according to the AATCC 138 protocol.

Aspergillus niger [2] = conditions: film side specimens, total minimum combined concentration (pad + film) of about 1600 ppm
Description: as §1

Klebsiella pneumoniae [3] = test system: Klebsiella pneumoniae
Description: as §1, §2
(§3) The AATCC 174, Part II test provides a quantitative procedure for the evaluation of the degree of antibacterial activity. Test specimens are inoculated with the test microorganisms. After incubation, the bacteria are eluted from specimens by shaking in 100 milliliters of liquid. The number of bacteria present in the liquid is determined and the percent reduction produced by the specimen is calculated.

Staphylococcus aureus [4] = test system: Staphylococcus aureus
Description: as §1, §2, §3

Klebsiella pneumoniae [5] = test system: Klebsiella pneumoniae; remark: listed apart in the source
Description: as §1, §2
(§4) The AATCC 174 test method includes three parts. Part I is a qualitative test for antibacterial activity. Test specimens are placed into contact with a nutrient agar which has been streaked with a bacterial culture. The specimens are then incubated. After incubation, a clear area of interrupted growth underneath and along the sides of the test specimen indicates antibacterial activity of the specimen. Standard strains of bacteria are used, with Staphylococcus aureus and Klebsiella pneumoniae being the representative organisms.

Staphylococcus aureus [6] = conditions: unwashed foam side specimen with 751 ppm of zinc pyrithione
Description: as §1, §2, §4

Aspergillus niger [7] = test system: Aspergillus niger
Experimental: as §1
Inhibitory mold activity was also tested by the ASTM E2180-01 test method. […] The total combined concentration is the sum of the concentration in the pad 12 of a specimen and the concentration in the film 18 of the specimen.

[8] = washed foam side specimen containing 751 ppm of zinc pyrithione
[9] = washed foam side specimen containing 1096 ppm of zinc pyrithione
[10] = all unwashed and washed film and foam side specimens, 500 ppm or more in the film and 1096 ppm in the pad

[O-]n1ccccc1=S.[O-]n1ccccc1=S.[Zn+2] [zinc pyrithione, Bis(1-hydroxy-2(1H)-pyridinethionato-O,S)-(T-4)Zinc]
fungus growth (Aspergillus niger) (Aspergillus niger [1]; washed and unwashed film side samples, 1500 ppm or greater of zinc pyrithione in the film): No growth was observed | fungus growth (Aspergillus niger) (Aspergillus niger [1]; washed and unwashed foam side samples, 1096 ppm of zinc pyrithione in the pad): no observable fungus growth | Aspergillus niger mold colonization (Aspergillus niger [2]): No Aspergillus niger mold colonization was observed | reduction in the numbers of Klebsiella pneumoniae (Klebsiella pneumoniae [3]; [8]): 90% | reduction in the numbers of Klebsiella pneumoniae (Klebsiella pneumoniae [3]; [9]): 90% | average reduction in Staphylococcus aureus (Staphylococcus aureus [4]; [10]): 92% | reduction in Staphylococcus aureus (minimum over specimens) (Staphylococcus aureus [4]; [10]): at least 66% | reduction in the numbers of Staphylococcus aureus (Staphylococcus aureus [4]; [8]): 90% | reduction in the numbers of Staphylococcus aureus (Staphylococcus aureus [4]; [9]): 90% | growth of Klebsiella pneumoniae underneath and along the sides of the specimen (Klebsiella pneumoniae [5]; all unwashed and washed foam side specimens with 1096 ppm or more of zinc pyrithione): inhibited the growth | zone of inhibition for Klebsiella pneumoniae (Klebsiella pneumoniae [5]; unwashed foam side specimen with 751 ppm of zinc pyrithione): one | zone of inhibition for Staphylococcus aureus (Staphylococcus aureus [6]): two | inhibitory activity for Aspergillus niger (Aspergillus niger [7]; film side specimens, total minimum combined concentration (pad + film) of 1600 ppm): Good inhibitory activity | inhibitory activity for Aspergillus niger (Aspergillus niger [7]; total combined concentration of 1251 ppm, i.e. 751 ppm in the pad and 500 ppm in the film): Good results were achieved for some, but not all, specimens
